Assay results reported in US10336792B2, “Antimicrobial peptide dendrimers” (priority 2014, dated 2019).
Converted amounts (≈) assume the structure as drawn. Like-named read-outs stand apart in the source and are kept apart here. Positions of bridges follow the written chain, without caps; N, C: chain ends. Non-standard residues stand in square brackets, D forms with d. Residues, ends and D or L forms follow the SMILES beside them. Groups on a side chain read outwards from the residue. Chains are numbered I, II in the order given. Dab = NCC[C@H](N)C(=O)O

How the values were obtained:
[1] = tested on: Bacillus subtilis (strain BR151); format: cell-based
Outline: (§1)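 Broth microdilution MIC in LB; overnight cultures diluted to OD600 0.001 and mixed 1:1 with ⅔-serially diluted samples (stock 1 mg mL^−1 in H2O), 37° C for 18-24 h. MTT (0.1%) added; MIC read by eye as lowest concentration inhibiting visible growth (yellow).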

[2] = tested on: Escherichia coli (strain DH5α); format: cell-based
Outline: as §1

[3] = tested on: human red blood cells (hRBC); assay: Haemolysis assay, minimal haemolytic concentration (MHC); format: cell-based; conditions: hRBC in PBS pH 7.4, 4 h, room temperature
Procedure: To determine the minimal haemolytic concentration (MHC) stock solutions of 8 mg/mL of the peptide dendrimers in H2O were prepared and 50 μL were diluted serially by ½ in 50 μL PBS (pH 7.4) in 96-well plate (Cornstar or Nunc, polystyrene, untreated). Human red blood cells (hRBC) were obtained by centrifuging 1.5 mL of whole blood from friendly donors at 3000 rpm for 15 minutes. Plasma was discarded and the pellet was re-suspended in a 15 mL falcon tube up to 5 mL of PBS. The washing was repeated three times and the remaining pellet was re-suspended in 10 mL of PBS at a final hRBC concentration of 5%. The hRBC suspension (50 μL) was added to each well and the plate was incubated at room temperature for 4 hours. Minimal haemolytic concentration (MHC) end points were determined by visual inspection of the wells after the incubation period. Controls on each plate included a blank medium control (50 μl PBS+50 μl of hRBC suspension) and a haemolytic activity control (mQ-deionized water 50 μL+50 μL hRBC suspension).
MIC (minimal inhibitory concentration) and MHC (minimal haemolytic concentration, determined on human red blood cells (hRBC)) values are given in μg/mL. When no detectable haemolytic activity was observed, the last measured concentration was used for calculation of the therapeutic index. TI (therapeutic index)=MHC (μg/ml)/geometric mean of MIC (μg/ml). Larger values indicate greater antimicrobial specificity.

[4] = Proteolytic stability with human serum; format: in vitro ADME; conditions: 100 μM peptide, human serum diluted with DMEM, 37 °C, up to 24 h
Procedure: Peptides and peptide dendrimers were prepared as 200 μM stock solution in PBS. 25% Human Serum (diluted with DMEM) was centrifuged at for 15 min at 14000 rpm to remove the lipids and supernatant was collected and incubated for 15 min at 37° C. Proteolysis was initiated upon addition of 50 μL of the test peptide or peptide dendrimer to 50 μL of serum and shaking at 37° C. Final peptide concentration is 100 μM. Reaction mixtures were analyzed after 0, 1, 6, 24 h by addition of ice-cold 10% Trichloroacetic acid (TCA) to precipitate serum proteins. The supernantant was collected for each sample after centrifugation at 14000 rpm for 15 min. and evaporated with a speedvac. After dissolving the solid in 100 μL mQ-H2O they were analyzed by RP-UPLC (flow rate: 1.2 mL/min. gradient: A/D=100/0 to 0/100 in 7.5 min). Conversions of the remaining peptide and peptide dendrimers were calculated by integration of the absorbance at 214 nm by using Chromeleon software.
The peptides were mixed with human serum (previously diluted with DMEM) to a final peptide concentration of 100 μM to determine the stability of AMPDs toward proteases and incubated at 37° C. for 0, 1, 6, or 24 hours. After precipitation of proteins with TCA, the solution was analyzed by analytical RP-UPLC. […] AMPDs MSt-114, MSt-136, MSt-138, MSt-139, MSt-140 and MSt-176 were also checked for their stability. […]

[5] = tested on: P. aeruginosa PAO1 bacterial suspension; assay: Detection of peptide in the presence of bacteria; format: in vitro ADME, Pseudomonas aeruginosa; conditions: 100 μM peptide, P. aeruginosa PAO1 in LB, 37 °C, up to 24 h
Procedure: Peptides and peptide dendrimers were prepared as 200 μM stock solution in H2O. A colony of bacteria was grown in LB-medium overnight at 37° C. The concentration was quantified by measuring absorbance at 600 nm and diluted to OD600=0.2. Degradation was initiated upon addition of 50 μL of the test peptide or peptide dendrimer to 50 μL of the bacterial suspension and shaking at 37° C. Final peptide concentration is 100 μM and final concentration of bacteria is OD600=0.1 (1×10^8 CFU/mL). Reaction mixtures were analyzed after 0, 1, 6, 9, 24 h by heating up to 95° C. for 5 min. followed by centrifugation for 15 min. at 14000 rpm. 50 μL of the supernantant were collected for each sample and 50 μL A were added giving a concentration of 50 μM. 5 μL of 4-Hydroxybenzoic acid (standard) were added before samples were analyzed by RP-UPLC (flow rate: 1.2 mL/min. gradient: A/D=100/0 to 0/100 in 7.5 min). Conversions of the remaining peptide and peptide dendrimers were calculated by integration of the absorbance at 214 nm by using Chromeleon software.
Bacteria were grown in LB overnight and diluted to OD600=0.2. After addition of the peptides to a concentration of 100 μM the samples were incubated for 0, 1, 6, 9, 24 hours at 37° C. After heating the suspension to 95° C. for 5 min and centrifugation the solution was subjected to UPLC and the remaining peptide was analyzed by using Chromeleon software.

[6] = tested on: Pseudomonas aeruginosa (strain PA01); assay: microbe, parasite or virus in culture; format: cell-based; conditions: strain
Outline: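 Broth microdilution MIC against P. aeruginosa PAO1 in LB: peptides serially diluted by ⅔, bacteria added at OD600 0.001 and incubated 18–24 h at 37 °C. MTT added; MIC is the lowest concentration preventing visible growth.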

[7] = tested on: Staphylococcus aureus (COL, MRSA reference strain); format: cell-based; conditions: COL, reference strain
Outline: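 Broth microdilution in Müller-Hinton medium, two-fold serial dilutions from a starting 32–256 μg/mL, compounds dissolved in PBS; inoculum about 5×10^5 CFU, incubated 37° C ~18 h. MIC taken as lowest concentration with no visible growth by eye; polymyxin as reference.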

B. subtilis BR151 = assay: Preliminary resistant development assay (daily MIC for 15 days); format: cell-based, Bacillus subtilis; conditions: bacteria from 1/2 MIC well re-tested daily
Procedure: MICs of compounds for B. subtilis BR151 were determined daily for 15 days using cells from the well in which the compound concentration was one-half the MIC value (½ MIC well). […] The re-suspension was then diluted to 5×10^5 cells/ml in LB Broth (OD600=0.1 then diluted 1:100 fold to get OD600=0.001) and used to again determine the MIC of the same compound to which those cells had previously been exposed. All MIC determinations were done in duplicate.
For an initial estimation of how fast resistances could arise with AMPDs the MIC was repeated for 15 days in a row and determined each day. After obtaining the MIC value in usual broth dilution assay the bacteria (B. subtilis) from the ½ MIC well were incubated for 2-5 hours and the dilution assay was repeated. This procedure was realized for 15 days and the MICs of each day compared. In case of an increase of the MIC, it is indicative for a resistance against the AMPDs.

[8] = 5(6)-Carboxyfluorescein leakage from lipid vesicles; conditions: 10 mM TRIS, 107 mM NaCl, pH 7.4; peptide added at 50 s
Procedure: (§2) Preparation A thin lipid film was prepared by evaporating a solution of 25 mg Egg PC or Egg PG in 1 mL MeOH/CHCl3 1/1 on a rotary evaporator (rt) and then in vacuo overnight. The resulting film was hydrated with 1 mL buffer (50 mM CF, 10 mM TIRS, 10 mM NaCl, pH 7.4) for 30 min, subjected to freeze-thaw cycles (7×) and extrusion (15×) through a polycarbonate membrane (pore size 100 nm). Extravesicular components were removed by gel filtration (Sephadex G-50) with 10 mM TRIS, 107 mM NaCl, pH 7.4. Final conditions: ˜2.5 mM Egg PC or Egg PG; inside: 50 mM CF, 10 mM TIRS, 10 mM NaCl, pH 7.4; outside: 10 mM TRIS, 107 mM NaCl, pH 7.4.
(§3) Experiment Egg PC or Egg PG stock solutions (37.5 μL) were diluted with a buffer (10 mM TRIS, 107 mM NaCl, pH 7.4) and placed in a thermostated fluorescence cuvette (25° C.) and gently stirred (total volume in the cuvette ˜3000 μL; final lipid concentration ˜31.25 μM). CF efflux was monitored at λem 517 nm (λex 492 nm) as a function of time after addition of 20 μL of peptide dendrimer in buffer (10 mM TRIS, 107 mM NaCl, pH 7.4) with final concentrations of 1, 5, 7.5, 10, 15, 20, 25, 30 μg/mL at t=50 s and 1.2% trition X-100 (30 μL, 0.012% final concentration) at t=300 s. Fluorescence intensities were normalized to fractional emission intensity I(t) using I(t)=(It−I0)/(I∞−I0) where I0 It at peptide dendrimer addition, I∞=It at saturation of lysis.
Bacterial membranes contain relatively large amounts of exposed anionic lipids, while the outer leaflet of the membranes of plants and animals is composed mainly of lipids with no net charge. The charge composition of such membranes can be mimicked with phospholipid vesicles. Large unilamellar vesicles (LUVs) composed of the neutral phospholipid with PC (phosphatidyl choline) or with PG (phosphatidyl glycerol) with negative charges were prepared encapsulating 5(6)-carboxyfluorescein (CF). […] The higher the concentration of MSt-112 the higher is the CF leakage (FIG. 6A). […] Overall the active AMPDs interact with the negatively charged membrane and release the CF.

[9] = as above; conditions: 10 mM TRIS, 107 mM NaCl, pH 7.4; peptide added at 50 s; remark: listed apart in the source
Procedure: as §2, §3

Structure (SMILES) | MIC B. subtilis BR151 ([1]; LB medium) [µg/mL] | MIC E. coli DH5α ([2]; LB medium) [µg/mL] | MHC (minimal haemolytic concentration) [3] | Stability in human serum (remaining peptide signal, RP-UPLC) [4] | Stability in bacterial suspension (remaining peptide, UPLC) [5] | MIC P. aeruginosa PAO1 [6] [µg/mL] | MIC B. subtilis BR151 ([1]; strain BR151) [µg/mL] | MIC E. coli DH5α ([2]; DH5α) [µg/mL] | MIC S. aureus (COL, MRSA reference strain) [7] | change of MIC over 15 days (resistance) (B. subtilis BR151) | CF leakage from phosphatidylglycerol LUVs [8] | CF leakage from phosphatidylcholine LUVs [9]
CC(C)C[C@H](NC(=O)[C@H](CC(C)C)NC(=O)[C@H](CCCCN)NC(=O)[C@H](C)NC(=O)[C@H](CC(C)C)NC(=O)[C@H](CCCCN)NC(=O)[C@H](CCCCN)NC(=O)[C@H](CC(C)C)NC(=O)[C@H](C)NC(=O)[C@H](CCCCN)NC(=O)[C@H](CCCCN)NC(=O)[C@H](Cc1ccc(O)cc1)NC(=O)[C@@H](N)CCCCN)C(N)=O [RHe-9, (KYKKALKKLAKLL), reference compound] (H-KYKKALKKLAKLL-NH2) | 4 (≈ 2.59 µM) | <1 | not haemolytic | completely disappeared | not detectable after 9 hours | – | – | – | – | – | – | –
NCC[C@H](NC(=O)[C@H](CCCCNC(=O)[C@H](Cc1c[nH]c2ccccc12)NC(=O)[C@H](CCN)NC(=O)[C@H](CCCCNC(=O)[C@H](Cc1c[nH]c2ccccc12)NC(=O)[C@@H](N)CCN)NC(=O)[C@H](Cc1c[nH]c2ccccc12)NC(=O)[C@@H](N)CCN)NC(=O)[C@H](Cc1c[nH]c2ccccc12)NC(=O)[C@H](CCN)NC(=O)[C@H](CCCCNC(=O)[C@H](Cc1c[nH]c2ccccc12)NC(=O)[C@@H](N)CCN)NC(=O)[C@H](Cc1c[nH]c2ccccc12)NC(=O)[C@@H](N)CCN)C(=O)N[C@@H](Cc1c[nH]c2ccccc12)C(N)=O [MSt-176, (DabW)4(KDabW)2(KDabW)] (I: H-[Dab]WK([Trp-Dab])[Dab]WK[Dab]W-NH2 / II: H-[Dab]WK([Trp-Dab])[Dab]W; amide I:6-II:C; N-terminus assumed) | – | – | – | – | – | 1 (≈ 0.416 µM) | 1 (≈ 0.416 µM) | 3 (≈ 1.25 µM) | below 20 μg/mL | did not have a significant change of their MIC values over 15 days | immediate leakage of CF | induced CF release
